Reference: patent US6225478A, “Iridoid derivatives and neovascularization inhibitors containing the same as active ingredient” (Tsumura & Co., priority 1999, dated 2001)

What was measured:
[1] = system: human umbilical-vein endothelial cells (HUVEC); assay: Tube Formation Assay (TFA) Test, HUVEC in collagen gel; type: cell-based; conditions: Homo sapiens, HUVEC, Tables 75-83; 0.32 mM sample solution; method as for Compounds 1 through 60; read-out: TFA Inhibition rate (%)
Procedure, shortened: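 HUVEC (7th subculture, 1×10^5 cells/ml) attached to collagen gel for 2 h at 37 °C, given sample and overlaid with collagen, then cultured 20 h at 37 °C, 5% CO2 in M-199 with 20% FCS, 30 ng/ml b-FGF and 0.1 μM PMA. Tube length measured by image analysis; % inhibition relative to positive and negative controls.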

HUFEC = assay: Cell Migration Assay (CMA) Test, inhibitory rate with control (-) correction; type: cell-based, human; conditions: Homo sapiens, 24 h, 125 μl of 0.32 mM sample solution in 4.0 ml medium, 80% or more = remarkable
Procedure, shortened: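 Confluent HUFEC monolayers were scratch-wounded, then cultured 24 h at 37 °C, 5% CO2 in M199 (2+) medium with compound added as 125 μl of a 0.32 mM solution (3.2% DMSO) per 4 ml. Giemsa-stained cells migrating into 1 mm×1 mm blocks counted; inhibition % calculated relative to control (+) and control (−) wells.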

| Structure (SMILES) | inhibition at 320 µM (stock) [1] | inhibition at 320 µM (stock) (HUFEC) |
| --- | --- | --- |
| COC(=O)C1=CO[C@@H](OC(=O)NCc2ccc(F)cc2)[C@H]2[C@@H]1CC[C@@H]2C [I-213] | 6.2% | 21.5% |
| COC(=O)C1=CO[C@@H](OC(=O)NCCS)[C@@H]2C(C)=CC[C@H]12 [I-134] | 8.6% | 7.1% |
| COC(=O)C1=CO[C@@H](OC(=O)N2CCC2)[C@@H]2C(C)=CC[C@H]12 [I-148] | 5.1% | 3.4% |
| COC(=O)C1=CO[C@@H](OC(=O)NCCCc2ccccc2)[C@H]2[C@@H]1CC[C@@H]2C [I-217] | 7.2% | 9.4% |
| COC(=O)C1=CO[C@@H](OC(=O)N2CCN(CCO)CC2)[C@@H]2C(C)=CC[C@H]12 [I-71] | 4.1% | 25.4% |
| COC(=O)C1=CO[C@@H](OC(=O)NCCOCCO)[C@@H]2C(C)=CC[C@H]12 [I-101] | 6.3% | 15.7% |
| CCC(CC)NC(=O)O[C@@H]1OC=C(C(=O)OC)[C@H]2CC=C(C)[C@@H]12 [I-102] | 8.2% | 15.6% |
| COC(=O)C1=CO[C@@H](OC(=O)N2CCN(c3ccccc3F)CC2)[C@@H]2C(C)=CC[C@H]12 [I-149] | 8.7% | 7.5% |
| CCNC(=O)O[C@@H]1OC=C(C(=O)OC)[C@H]2CC[C@H](C)[C@@H]12 [I-262] | 8.8% | 6.3% |
| COC(=O)C1=COC[C@@H]2C(COC(=O)NCCCl)CC[C@H]12 (stereo partly drawn) [I-297] | 11.2% | 15.2% |
| COC(=O)C1=CO[C@@H](OC(=O)Nc2ccc(Cl)cc2C(F)(F)F)[C@H]2[C@@H]1CC[C@@H]2C [I-265] | 3.3% | 6.3% |
| COC(=O)C1=CO[C@@H](OC(=O)NCCc2ccc(F)cc2)[C@@H]2C(C)=CC[C@H]12 [I-107] | 4.4% | 31.2% |
| COC(=O)C1=CO[C@@H](OC(=O)Nc2ccc(OC)cc2)[C@H]2[C@@H]1CC[C@@H]2C [I-263] | 5.5% | 7.2% |
| COC(=O)C1=CO[C@@H](OC(=O)NCc2ccc(S(N)(=O)=O)cc2)[C@@H]2C(C)=CC[C@H]12 [I-133] | 9.5% | 3.9% |
| COC(=O)C1=CO[C@@H](OC(=O)Nc2ccc(Br)cc2)[C@H]2[C@@H]1CC[C@@H]2C [I-259] | 2.9% | 5% |
| COC(=O)CNC(=O)O[C@@H]1OC=C(C(=O)OC)[C@H]2CC=C(C)[C@@H]12 [I-144] | 7.5% | 31.2% |
| COC(=O)C1=CO[C@@H](OC(=O)NCCCCCO)[C@H]2[C@@H]1CC[C@@H]2C [I-209] | 4.9% | 8.9% |
| CCOc1ccccc1N1CCN(C(=O)O[C@@H]2OC=C(C(=O)OC)[C@H]3CC=C(C)[C@@H]23)CC1 [I-141] | 23.1% | 12.5% |
| COC(=O)C1=CO[C@@H](OC(=O)NCCCN2CCOCC2)[C@H]2[C@@H]1CC[C@@H]2C [I-229] | 3% | 19.5% |
| COC(=O)C1=CO[C@@H](OC(=O)N(C)C)[C@@H]2C(C)=CC[C@H]12 [I-136] | 15.6% | 8.3% |
| COC(=O)C1=CO[C@@H](OC(=O)NCc2ccc(Br)cc2)[C@H]2[C@@H]1CC[C@@H]2C [I-245] | 6.3% | 27.3% |
| COC(=O)C1=CO[C@@H](OC(=O)NCCN(C)C)[C@H]2[C@@H]1CC[C@@H]2C [I-222] | 20.8% | 3.7% |
| CCCCCCC1=CC[C@@H]2C(C(=O)OC)=CO[C@@H](OC(=O)NC)[C@H]12 [I-299] | 8.8% | 5.9% |
| COC(=O)C1=CO[C@@H](OC(=O)N2CCOCC2)[C@H]2[C@@H]1CC[C@@H]2C [I-188] | 10.2% | 7.1% |
